Row | SMILES | melting point [°C]
1 | CCN(CCCCC1CCN(C(c2ccccc2)c2ccccc2)CC1)C(=O)CCc1cccnc1 [compound 68, N-[4-(1-diphenylmethyl-piperidin-4-yl)-butyl]-N-ethyl-3-(pyridin-3-yl) -propionamide] | 72 to 74
2 | O=C(COc1cccnc1)NCCCCC1CCN(C(c2ccccc2)c2ccccc2)CC1 [compound 84, N-[4-(1-diphenylmethyl-piperidin-4-yl)-butyl]-2-(pyridin-3-yloxy)-acetamide] | 103 to 105
3 | O=C(CCc1cccnc1)NCCCCCC1CCN(C(c2ccccc2)c2ccccc2)CC1 [compound 101, N-[5-(1-diphenylmethyl-piperidin-4-yl)-pentyl]-3-(pyridin-3-yl)-propionamide] | 112 to 114
4 | O=C(CCc1cccnc1)NCCCCC1CCN(C2c3ccccc3COc3ccccc32)CC1 (centres unmarked) [compound 142, N-{4-[1-(6,11-dihydrodibenzo[b,e]oxepin-11-yl)-piperidin-4-yl]-butyl}-3-(pyridin-3-yl)-propionamide] | 110 to 112
5 | O=C(CCc1cccnc1)NCCCCC1CCN(C(=O)c2ccccc2)CC1 [compound 162, N-[4-(1-benzoylpiperidin-4-yl)-butyl]-3-(pyridin-3-yl)-propionamide] | 72 to 74
